According to ChEMBL document CHEMBL4364336, “Synthesis and exploration of 2-morpholino-4-phenylthiazol-5-yl acrylamide derivatives for their effects against carbonic anhydrase I, II, IX and XII isoforms as a non-sulfonamide class of inhibitors” (Bioorg Med Chem, 2019):

Legend:
Carbonic anhydrase 2 = Carbonic anhydrase 2 (Homo sapiens, UniProt P00918); experiment: Inhibition of recombinant human carbonic anhydrase2 preincubated for 10 mins followed by CO2 solution addition by phenol red dye based stopped flow CO2 hydration assay
Carbonic anhydrase 1 = Carbonic anhydrase 1 (Homo sapiens, UniProt P00915); experiment: Inhibition of recombinant human carbonic anhydrase1 preincubated for 10 mins followed by CO2 solution addition by phenol red dye based stopped flow CO2 hydration assay
Carbonic anhydrase 1, sequence (P00915 whole entry): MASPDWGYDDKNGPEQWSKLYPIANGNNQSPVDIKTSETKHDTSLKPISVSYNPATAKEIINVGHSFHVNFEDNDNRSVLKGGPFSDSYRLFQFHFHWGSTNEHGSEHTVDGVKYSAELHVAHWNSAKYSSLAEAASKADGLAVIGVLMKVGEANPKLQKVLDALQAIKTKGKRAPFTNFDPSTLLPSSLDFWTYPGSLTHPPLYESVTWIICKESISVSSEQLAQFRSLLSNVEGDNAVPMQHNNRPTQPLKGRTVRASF

Carbonic anhydrase 9 = Carbonic anhydrase 9 (Homo sapiens, UniProt Q16790); experiment: Inhibition of recombinant human carbonic anhydrase9 preincubated for 10 mins followed by CO2 solution addition by phenol red dye based stopped flow CO2 hydration assay
Carbonic anhydrase 12 = Carbonic anhydrase 12 (Homo sapiens, UniProt O43570); experiment: Inhibition of recombinant human carbonic anhydrase12 preincubated for 10 mins followed by CO2 solution addition by phenol red dye based stopped flow CO2 hydration assay
Carbonic anhydrase 12, sequence (O43570 whole entry): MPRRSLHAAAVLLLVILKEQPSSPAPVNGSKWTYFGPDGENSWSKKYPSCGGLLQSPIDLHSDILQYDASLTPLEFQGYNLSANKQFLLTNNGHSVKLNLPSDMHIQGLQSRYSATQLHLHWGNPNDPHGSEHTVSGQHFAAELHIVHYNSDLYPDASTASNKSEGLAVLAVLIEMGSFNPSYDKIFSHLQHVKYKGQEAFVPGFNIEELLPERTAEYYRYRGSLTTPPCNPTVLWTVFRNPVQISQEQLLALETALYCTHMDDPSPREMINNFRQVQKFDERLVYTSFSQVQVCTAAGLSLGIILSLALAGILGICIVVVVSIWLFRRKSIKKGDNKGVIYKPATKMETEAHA

Compound	Ki (Carbonic anhydrase 2) [µM]	Ki (Carbonic anhydrase 1) [µM]	Ki (Carbonic anhydrase 9) [µM]	Ki (Carbonic anhydrase 12) [µM]
COc1ccc(NC(=O)/C=C/c2sc(N3CCOCC3)nc2-c2ccccc2)cc1	> 100	> 100	> 100	> 100
COc1ccc(NC(=O)/C=C/c2sc(N3CCOCC3)nc2-c2ccc(Cl)cc2)cc1OC	> 100	> 100	> 100	> 100
COc1ccc(NC(=O)/C=C/c2sc(N3CCOCC3)nc2-c2ccc([N+](=O)[O-])cc2)cc1OC	> 100	> 100	> 100	> 100
O=C(/C=C/c1sc(N2CCOCC2)nc1-c1ccccc1)Nc1ccc(Br)cc1	> 100	> 100	> 100	> 100
COc1ccc(-c2nc(N3CCOCC3)sc2/C=C/C(=O)Nc2cc(OC)c(OC)c(OC)c2)cc1	> 100	> 100	> 100	> 100
Nc1ccccc1NC(=O)/C=C/c1sc(N2CCOCC2)nc1-c1ccccc1	> 100	> 100	> 100	> 100
COc1cc(NC(=O)/C=C/c2sc(N3CCOCC3)nc2-c2ccccc2)cc(OC)c1OC	> 100	> 100	> 100	> 100
COc1cc(NC(=O)/C=C/c2sc(N3CCOCC3)nc2-c2ccc(Cl)cc2)cc(OC)c1OC	> 100	> 100	> 100	> 100
COc1ccc(-c2nc(N3CCOCC3)sc2/C=C/C(=O)Nc2ccc(OC)c(OC)c2)cc1	> 100	> 100	> 100	> 100
COc1ccc(-c2nc(N3CCOCC3)sc2/C=C/C(=O)Nc2ccc(Br)cc2)cc1	> 100	> 100	> 100	> 100
Nc1ccccc1NC(=O)/C=C/c1sc(N2CCOCC2)nc1-c1ccc(Cl)cc1	> 100	> 100	> 100	> 100
COc1ccc(-c2nc(N3CCOCC3)sc2/C=C/C(=O)Nc2ccccc2N)cc1	> 100	> 100	> 100	> 100
COc1ccc(NC(=O)/C=C/c2sc(N3CCOCC3)nc2-c2ccc(OC)cc2)cc1	> 100	> 100	> 100	> 100

Now from value to compound:

Ki (Carbonic anhydrase 2) [µM]	Ki (Carbonic anhydrase 1) [µM]	Ki (Carbonic anhydrase 9) [µM]	Ki (Carbonic anhydrase 12) [µM]	Compound
77.7	> 100	96.7	> 100	Nc1ccccc1NC(=O)/C=C/c1sc(N2CCOCC2)nc1-c1ccc([N+](=O)[O-])cc1
67.8	> 100	96.5	> 100	O=C(/C=C/c1sc(N2CCOCC2)nc1-c1ccc(Cl)cc1)Nc1ccc(Br)cc1
> 100	> 100	> 100	> 100	COc1ccc(NC(=O)/C=C/c2sc(N3CCOCC3)nc2-c2ccccc2)cc1OC
50.4	> 100	94.9	7.5	COc1ccc(NC(=O)/C=C/c2sc(N3CCOCC3)nc2-c2ccc(Cl)cc2)cc1
9.3	> 100	54.7	8.8	O=C(/C=C/c1sc(N2CCOCC2)nc1-c1ccc([N+](=O)[O-])cc1)Nc1ccc(Br)cc1
39.2	> 100	54.7	4.6	COc1ccc(NC(=O)/C=C/c2sc(N3CCOCC3)nc2-c2ccc([N+](=O)[O-])cc2)cc1
